Laboratory results published in patent US20150065440A1 (Progen Pharmaceuticals Limited, priority 2007, published 2015).
Counter-ions that a name gives are not always drawn. Like-named read-outs stand apart in the source and are kept apart here.

Columns and labels:
[1] = system: pooled normal human plasma; experiment: Anticoagulant activity, APTT; conditions: 0.1 mg/mL in normal pooled human plasma
Description: APTT measurements were performed on a STAGO STA-Compact Coagulation Analyser using standard protocols according to the manufacturer's instructions. Unfractionated heparin (UFH) was used as a control.

FGF-1 = FGF-1 (Homo sapiens, UniProt P05230); experiment: Growth factor binding assay (SPR solution affinity), FGF-1
FGF-1, sequence (P05230 whole entry, species assumed): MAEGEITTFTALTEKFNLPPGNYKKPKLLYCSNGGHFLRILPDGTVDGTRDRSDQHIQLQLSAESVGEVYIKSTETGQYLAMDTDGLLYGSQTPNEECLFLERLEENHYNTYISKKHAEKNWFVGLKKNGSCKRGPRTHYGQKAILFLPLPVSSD
Description: (§1) Binding affinities of compounds for the growth factors FGF-1, FGF-2 and VEGF were measured using a surface plasmon resonance (SPR) based solution affinity assay.^9 Heparin-coated sensorchips used for this assay were prepared via immobilisation of biotinylated BSA-heparin on a streptavidin-coated sensorchip, or via aldehyde coupling using either adipic acid dihydrazide or 1,4-diaminobutane.^9 For each Kd measurement, solutions were prepared containing a fixed concentration of protein and varying concentrations of the ligand in buffer. Ligands binding to FGF-1 and VEGF were measured in HBS-EP buffer (10 mM HEPES, pH 7.4, 150 mM NaCl, 3.0 mM EDTA and 0.005% (v/v) polysorbate 20), while binding to FGF-2 was measured in HBS-EP buffer containing 0.3 M NaCl. Prior to injection, samples were maintained at 4° C. to maximise protein stability. For each assay mixture, 50-200 μL of solution was injected at 5-40 μL/min and the relative binding response measured. All surface binding experiments were performed at 25° C. The surface was regenerated by injection of 40 μL of 4M NaCl at 40 μL/min, followed by injection of 40 μL of buffer at 40 μL/min.
(§2) Sensorgram data were analysed using the BIAevaluation software (BIAcore) and Kd values determined as previously described.^9 Where Kd values were measured in duplicate, the values represent the average of the duplicate measurements.

FGF-2 = FGF-2 (Homo sapiens, UniProt P09038); experiment: Growth factor binding assay (SPR solution affinity), FGF-2; conditions: SPR, HBS-EP buffer containing 0.3 M NaCl, 25° C.; read-out: Kd FGF-2
FGF-2, sequence (P09038 143-288, species assumed): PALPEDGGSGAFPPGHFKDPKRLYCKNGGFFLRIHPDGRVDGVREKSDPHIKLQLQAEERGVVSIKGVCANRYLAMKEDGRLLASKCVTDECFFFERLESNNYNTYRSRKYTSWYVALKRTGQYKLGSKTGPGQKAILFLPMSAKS
Description: as §1, §2

[2] = biological target: T1, recombinant human heparanase (Homo sapiens, UniProt Q9Y251); experiment: Heparanase inhibition assay (fondaparinux cleavage, WST-1); conditions: read-out: Ki Heparanase; IC50 converted into Ki; fondaparinux 100 μM, pH 5.0
T1 sequence (Q9Y251 158-543 limits assumed): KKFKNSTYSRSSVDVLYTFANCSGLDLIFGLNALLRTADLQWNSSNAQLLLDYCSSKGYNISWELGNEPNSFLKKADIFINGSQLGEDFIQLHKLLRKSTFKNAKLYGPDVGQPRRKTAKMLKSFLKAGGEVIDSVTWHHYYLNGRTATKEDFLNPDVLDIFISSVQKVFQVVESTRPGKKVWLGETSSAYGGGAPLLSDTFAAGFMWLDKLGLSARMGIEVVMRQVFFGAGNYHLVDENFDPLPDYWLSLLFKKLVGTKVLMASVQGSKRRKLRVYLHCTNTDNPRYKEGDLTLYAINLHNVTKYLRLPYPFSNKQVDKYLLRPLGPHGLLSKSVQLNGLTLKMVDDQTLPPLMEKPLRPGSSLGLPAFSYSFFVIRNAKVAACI
T1 sequence (Q9Y251 36-109 limits assumed): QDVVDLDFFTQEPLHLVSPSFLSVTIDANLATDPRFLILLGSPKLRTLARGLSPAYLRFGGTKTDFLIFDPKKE

VEGF = biological target: T2, VEGF (Homo sapiens, UniProt P15692); experiment: Growth factor binding assay (SPR solution affinity), VEGF; conditions: HBS-EP buffer, 25° C.
T2 sequence (P15692 207-395): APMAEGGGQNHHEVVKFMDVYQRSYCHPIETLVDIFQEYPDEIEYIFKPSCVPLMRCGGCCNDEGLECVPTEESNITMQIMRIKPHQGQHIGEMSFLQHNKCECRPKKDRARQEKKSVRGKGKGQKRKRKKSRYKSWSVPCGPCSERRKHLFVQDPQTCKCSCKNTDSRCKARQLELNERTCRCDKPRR
Description: as §1, §2

[3] = system: normal pooled human plasma; experiment: Anticoagulant activity, Heptest; conditions: 0.1 mg/mL in normal pooled human plasma
[4] = system: HUVEC proliferation induced by FGF-1; experiment: Growth factor induced endothelial cell proliferation assay, FGF-1; format: cell-based, human; conditions: Homo sapiens, HUVEC, 72 h; read-out: FGF-1 (IC50) inhibition of HUVEC proliferation
Source text: (§3) HUVEC cells were maintained and subcultured according to standard cell culture protocols essentially as described by Lonza. Briefly, cells were maintained in Lonza endothelial growth media (EGM) with recommended supplements and growth factors (VEGF, FGF2, EFG, IGF, hydrocortisone, fetal bovine serum (FBS), ascorbic acid, heparin and gentamicin). Cells were subcultured when they reached 70-80% confluence by trypsinisation and reseeding in fresh growth medium in new culture vessels at 2500 to 5000 cells/cm^2 of vessel surface area. Cell counts were performed using a haemocytometer and viable cells were visualized with trypan blue.
(§4) Medium for the proliferation studies was prepared using EGM with 2% FBS and gentamicin only. In a later study, complete EGM was used for the VEGF groups in an attempt to enhance the proliferative index of VEGF-stimulated groups. For the tube formation assay, complete medium was used with only heparin omitted. Compounds under investigation were weighed out from powder stocks and diluted in PBS to 10 mM stock solutions and stored at −80° C. For experiments, compounds were subsequently diluted in EBM-2 medium (supplemented with 2% FBS and gentamicin) to various working concentration as required.
(§5) In the first of a series of experiments, the assay was further optimized by examining the cell density and growth factor concentration required to induce maximal proliferation by growth factors. Briefly, 100 μL of cells was added to each well at concentrations between 1-3×10^3 per well. Growth factors and test compounds were then added in 50 μL volumes at specified concentrations to obtain a final volume of 200 μL. Following incubation for 70 h, 20 μL of the CellTitre 96® Aqueous One Solution Cell Proliferation Assay (Promega) was added for 2 h prior to reading the absorbance at 490 nm to obtain OD values.

HSV-2 = experiment: Viral plaque number-reduction assay, HSV-2; conditions: Human alphaherpesvirus 2, read-out: HSV-2 IC50
Description: (§6) African green monkey kidney (GMK AH1) cells^46 were cultured in Eagle's minimum essential medium (EMEM) supplemented with 2% calf serum, 0.05% Primaton RL substance (Kraft Inc., Norwich, USA) and antibiotics. Human epidermoid carcinoma (HEp-2) cells were cultured in Dulbecco's modified EMEM (DMEM) supplemented with 10% fetal calf serum and antibiotics. […] The RSV strain A-2^50 was used. The RSV stock was prepared as described by Hallak et al.^51 and stored at −70° C. in the presence of 40% sucrose^52.
(§7) The viral infectivity (the plaque number-reduction) assay and the plaque size-reduction assay were carried out as described previously^17. […] Subsequently, the cells were washed with 2 mL of EMEM and overlaid with 1% methylcellulose solution in EMEM. The plaques were visualized by staining with crystal violet solution after 2 (HSV-2) or 3 (HSV-1) days of incubation at 37° C. […] When the compounds were screened for anti-HSV or anti-RSV activity, mixtures of 200 PFU of the virus and the test compound (100 μg/mL) in serum-free EMEM were incubated for 10 min at room temperature before addition to cells and during the entire period of viral infection of cells and the development of viral plaques. In the plaque size-reduction assay, the compounds were added to cells (in methylcellulose overlay medium) after 2 h period of virus infection of cells in the absence of the inhibitor. After 2-3 days of incubation at 37° C., the viral plaques were visualized by staining the cells with 1% solution of crystal violet. For each compound tested, the images of twenty neighboring plaques were captured using a Leica DC300 digital camera attached to a Leitz-Wetzlar Diavert microscope. The area of each plaque was determined using IM500 image software (Leica). Similar protocols were used for RSV, except that the assays were performed in HEp-2 cells and DMEM supplemented with 2% heat-inactivated fetal calf serum was used instead of EMEM.

RSV = experiment: Viral plaque number-reduction assay, RSV; conditions: human respiratory syncytial virus, read-out: RSV IC50
Description: as §6, §7

[5] = system: HUVEC proliferation induced by VEGF; experiment: Growth factor induced endothelial cell proliferation assay, VEGF; format: cell-based, human; conditions: Homo sapiens, HUVEC, 72 h; read-out: VEGF (IC50) inhibition of HUVEC proliferation
Source text: as §3, §4, §5

[6] = system: HUVEC proliferation induced by FGF-2; experiment: Growth factor induced endothelial cell proliferation assay, FGF-2; format: cell-based, human; conditions: Homo sapiens, HUVEC, 72 h; read-out: FGF-2 (IC50) inhibition of HUVEC proliferation
Source text: as §3, §4, §5

[7] = SPR, HBS-EP buffer, 25° C., read-out: Kd FGF-1

CC(C)CCCC(C)C1CCC2C3CCC4CC(OCc5cn(C6OC(COS(=O)(=O)O)C(OC7OC(COS(=O)(=O)O)C(OC8OC(COS(=O)(=O)O)C(OS(=O)(=O)O)C(OS(=O)(=O)O)C8OS(=O)(=O)O)C(OS(=O)(=O)O)C7OS(=O)(=O)O)C(OS(=O)(=O)O)C6OS(=O)(=O)O)nn5)CCC4(C)C3CCC12C [Compound 76, 4-(Cholestan-3β-yl-oxymethyl)[1,2,3]triazol-1-yl 2,3,4,6-tetra-O-sodium sulfonato-α-D-glucopyranosyl-(1→4)-2,3,6-tri-O-sodium sulfonato-α-D-glucopyranosyl-(1→4)-1-deoxy-2,3,6-tri-O-sodium sulfonato-β-D-glucopyranoside]
APTT [1]: 61.2 s
Kd (FGF-1; [7]): 50 ± 8 nM
Kd (FGF-2): 610 ± 60 nM
Ki [2]: 16 ± 4 nM
Kd (VEGF): 790 ± 230 nM
Heptest [3]: 30.2 s

CC(=O)OC1CC2C(CCC3CC(OS(=O)(=O)O)CCC32C)C2CCC(C(C)CCC(=O)NC3OC(COS(=O)(=O)O)C(OC4OC(COS(=O)(=O)O)C(OC5OC(COS(=O)(=O)O)C(OC6OC(COS(=O)(=O)O)C(OS(=O)(=O)O)C(OS(=O)(=O)O)C6OS(=O)(=O)O)C(OS(=O)(=O)O)C5OS(=O)(=O)O)C(OS(=O)(=O)O)C4OS(=O)(=O)O)C(OS(=O)(=O)O)C3OS(=O)(=O)O)C12C [Compound 83, N-(2,3,4,6-tetra-O-sodiumsulfonato-α-D-glucopyranosyl-(1→4)-2,3,6-tri-O-sodiumsulfonato-α-D-glucopyranosyl-(1→4)-2,3,6-tri-O-sodiumsulfonato-α-D-glucopyranosyl-(1→4)-2,3,6-tri-O-sodiumsulfonato-β-D-glucopyranosyl)-4-((3R,10S,12S,13R)-3-O-sodiumsulfonato-12-O-acetyl-10,13-dimethylhexadecahydro-1H-cyclopenta[a]phenanthren-17-yl)pentanamide]
APTT [1]: 41.0 s
Kd (FGF-1; [7]): 1.25 ± 0.07 nM
Kd (FGF-2): 50 ± 4 nM
Ki [2]: 20 ± 5 nM
Kd (VEGF): 7.95 ± 0.07 nM
Heptest [3]: 26.8 s

CC(C)CCCC(C)C1CCC2C3CCC4CC(OC5OC(COS(=O)(=O)O)C(OC6OC(COS(=O)(=O)O)C(OC7OC(COS(=O)(=O)O)C(OS(=O)(=O)O)C(OS(=O)(=O)O)C7OS(=O)(=O)O)C(OS(=O)(=O)O)C6OS(=O)(=O)O)C(OS(=O)(=O)O)C5OS(=O)(=O)O)CCC4(C)C3CCC12C [Compound 87, 3β-Cholestanyl 2,3,4,6-tetra-O-sodium sulfonato-α-D-glucopyranosyl-(1→4)-2,3,6-tri-O-sodium sulfonato-α-D-glucopyranosyl-(1→4)-2,3,6-tri-O-sodium sulfonato-β-D-glucopyranoside]
APTT [1]: 51.6 s
Kd (FGF-1; [7]): 24.8 ± 2.3 nM
Kd (FGF-2): 547 ± 50 nM
Ki [2]: 9.1 ± 2.5 nM
Kd (VEGF): 190 ± 60 nM
Heptest [3]: 29.2 s

CC(C)CCC[C@@H](C)[C@H]1CC[C@H]2[C@@H]3CCC4CC(O[C@@H]5O[C@H](COS(=O)(=O)O)[C@@H](O[C@@H]6O[C@H](COS(=O)(=O)O)[C@@H](OS(=O)(=O)O)[C@H](OS(=O)(=O)O)[C@H]6OS(=O)(=O)O)[C@H](OS(=O)(=O)O)[C@H]5OS(=O)(=O)O)CC[C@]4(C)[C@H]3CC[C@]12C (stereo partly drawn) [Compound 107, 3′-Cholestanyl 2,3,4,6-tetra-O-sulfo-β-D-glucopyranosyl-(1→4)-2,3,6-tri-O-sulfo-β-D-glucopyranoside, heptasodium salt]
IC50 [4]: 5750 nM
IC50 (HSV-2): 0.43 µg/mL
APTT [1]: 38.8 s
IC50 (RSV): 1.9 µg/mL
IC50 [5]: 5560 nM
Kd (VEGF): 1350 ± 70 nM
IC50 [6]: 5590 nM
Heptest [3]: 25.3 s

CC(C)CCC[C@@H](C)[C@H]1CC[C@H]2[C@@H]3CCC4CC(O[C@@H]5O[C@H](COS(=O)(=O)O)[C@@H](O[C@@H]6O[C@H](COS(=O)(=O)O)[C@H](OS(=O)(=O)O)[C@H](OS(=O)(=O)O)[C@H]6OS(=O)(=O)O)[C@H](OS(=O)(=O)O)[C@H]5OS(=O)(=O)O)CC[C@]4(C)[C@H]3CC[C@]12C (stereo partly drawn) [Compound 112, 3′-Cholestanyl 2,3,4,6-tetra-O-sulfo-β-D-galactopyranosyl-(1→4)-2,3,6-tri-O-sulfo-β-D-glucopyranoside, heptasodium salt]
IC50 (HSV-2): 0.45 µg/mL
APTT [1]: 38.9 s
Kd (FGF-1): 900 ± 150 nM
IC50 (RSV): 2.4 µg/mL
Kd (FGF-2): 2100 ± 300 nM
Kd (VEGF): 430 ± 140 nM
Heptest [3]: 25.4 s
